TGI and GI50 data for ten compounds are collected here from PubChem BioAssay (NCI).

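All cell lines were grown in 96-well plates and treated with compound for 48 hours. GI50 = concentration required for 50% inhibition of growth. At the TGI there is no net growth.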

Among the test systems are 786-0 renal; CAKI-1 renal; HCT-15 colon; HOP-92 NSCLC; NCI-H226 lung; NCI-H522 lung; OVCAR-4 ovarian; OVCAR-8 ovarian; RXF 393 renal; SF-268 CNS; SN12C renal; SR leukemia; UACC-257 melanoma; UO-31 renal; MDA-N; SNB-75 CNS; SW-620 colon.
What all share (assay): NCI tumour cell line growth inhibition, 48 h

Take `O=C1C=C(Nc2ccccc2C(=O)CC(=O)C(=O)Nc2ccc(Cl)c(Cl)c2)c2ccccc2C1=O`: the TGI in the assay with 786-0 renal is greater than 100 µM; in the assay with CAKI-1 renal, greater than 100 µM; in the assay on HCT-15 colon, greater than 100 µM; in the assay on HOP-92 NSCLC it was greater than 100 µM; with NCI-H226 lung, greater than 100 µM; in the assay on NCI-H522 lung it was 54.5 µM. Besides, the TGI in the assay on OVCAR-4 ovarian, in the assay with OVCAR-8 ovarian, in the assay on RXF 393 renal, in the assay with SF-268 CNS, in the assay with SN12C renal and in the assay with SR leukemia was greater than 100 µM in each case. The figures for the TGI with UACC-257 melanoma and with UO-31 renal were 47.6 µM and greater than 100 µM, respectively.
`NC(=O)C(=CN1CC(=O)NC1=S)C(N)=O`: the TGI with 786-0 renal, in the assay on CAKI-1 renal, in the assay on HCT-15 colon, with HOP-92 NSCLC, in the assay on MDA-N and with NCI-H226 lung was greater than 100 µM each time. Moreover, the TGI with OVCAR-4 ovarian, with OVCAR-8 ovarian, with RXF 393 renal, in the assay on SF-268 CNS, in the assay on SN12C renal and in the assay on SNB-75 CNS was greater than 100 µM throughout. Moreover, the TGI in the assay on SW-620 colon, in the assay on UACC-257 melanoma and in the assay with UO-31 renal was greater than 100 µM each time.
On to `COc1ccc(/C(Cl)=C/c2ccc(Cl)c(Cl)c2)cc1`, for which the TGI with 786-0 renal is greater than 100 µM; in the assay with HCT-15 colon it was 97.3 µM; in the assay on HOP-92 NSCLC, 78.7 µM; with NCI-H226 lung it was 53.2 µM; with NCI-H522 lung, 41.1 µM; in the assay on OVCAR-4 ovarian it was greater than 100 µM. Also, the TGI with OVCAR-8 ovarian is greater than 100 µM; in the assay with RXF 393 renal it was 33.6 µM; in the assay on SF-268 CNS, greater than 100 µM; in the assay on SN12C renal it was greater than 100 µM; with SNB-75 CNS, 99.7 µM; in the assay with SR leukemia, 47.9 µM. Moreover, the TGI is greater than 100 µM with SW-620 colon, 66.2 µM in the assay with UACC-257 melanoma and greater than 100 µM with UO-31 renal.
For `CCOC(=O)c1cn2c([nH]c3ccccc32)c(C#N)c1=O`, the TGI with 786-0 renal, with CAKI-1 renal, with HCT-15 colon, in the assay on HOP-92 NSCLC, in the assay with NCI-H226 lung and in the assay with NCI-H522 lung was greater than 100 µM throughout. The TGI in the assay on OVCAR-4 ovarian, with OVCAR-8 ovarian, in the assay with RXF 393 renal, in the assay on SF-268 CNS, in the assay on SN12C renal and in the assay on SNB-75 CNS was greater than 100 µM in each case. In addition, the TGI with SR leukemia is greater than 100 µM; with SW-620 colon, 39.5 µM; with UACC-257 melanoma, greater than 100 µM; with UO-31 renal, greater than 100 µM.
`COC(=O)c1cc(C)n(NC(=O)OC(C)(C)C)c1C`: the TGI in the assay on 786-0 renal, in the assay with CAKI-1 renal, with HCT-15 colon, in the assay with NCI-H226 lung, with NCI-H522 lung and in the assay on OVCAR-8 ovarian was greater than 100 µM throughout. The TGI in the assay on RXF 393 renal, in the assay on SF-268 CNS, in the assay with SN12C renal, in the assay with SNB-75 CNS, with SW-620 colon and in the assay with UACC-257 melanoma was greater than 100 µM each time. The compound also displayed a TGI in the assay with UO-31 renal greater than 100 µM.
As to `C1=c2ccccc2=C2C(=C(c3ccccc3)C(c3ccccc3)=NN2c2ccccc2)S1`, the TGI in the assay on 786-0 renal, in the assay on CAKI-1 renal, in the assay on HCT-15 colon, with HOP-92 NSCLC, with NCI-H226 lung and in the assay on NCI-H522 lung was greater than 100 µM each time. The TGI in the assay with OVCAR-4 ovarian, with OVCAR-8 ovarian, in the assay on RXF 393 renal, in the assay on SF-268 CNS, in the assay with SN12C renal and in the assay on SNB-75 CNS was greater than 100 µM in each case. The TGI in the assay on SW-620 colon, in the assay on UACC-257 melanoma and in the assay with UO-31 renal was greater than 100 µM each time.
As to `Cn1c(N)c(-c2c3ccccc3nc3ccccc23)c(=O)n(C)c1=O`, the TGI with 786-0 renal, in the assay on CAKI-1 renal, in the assay with HCT-15 colon, with HOP-92 NSCLC, in the assay with NCI-H522 lung and in the assay with OVCAR-4 ovarian was greater than 100 µM in each case. The TGI in the assay on OVCAR-8 ovarian, with RXF 393 renal, in the assay with SF-268 CNS, in the assay on SN12C renal and with SW-620 colon was greater than 100 µM each time.
On to `C[N+](C)(Cc1ccc(NC(=O)CCCC(=O)ON2C(=O)CCC2=O)cc1)c1ccccc1`, for which the TGI in the assay on 786-0 renal was greater than 100 µM; in the assay with CAKI-1 renal, greater than 100 µM; with HCT-15 colon it was greater than 100 µM; in the assay on HOP-92 NSCLC, less than 0.01 µM; in the assay on NCI-H226 lung, 0.0133 µM; in the assay on NCI-H522 lung it was greater than 100 µM. Moreover, the TGI with OVCAR-4 ovarian is 2.29 µM; with OVCAR-8 ovarian, greater than 100 µM; in the assay with SF-268 CNS, 3.93 µM; with SN12C renal, greater than 100 µM; with SNB-75 CNS, 2.42 µM; in the assay on SR leukemia, less than 0.01 µM. Besides, the TGI in the assay with SW-620 colon was greater than 100 µM; in the assay on UACC-257 melanoma, less than 0.01 µM. The GI50 in the assay with HCT-15 colon is greater than 100 µM.
In the case of `COC1=CC(=O)c2ccccc2C1(C)C1=NC(C)(C)CO1` (stereo not given), the TGI in the assay on 786-0 renal, in the assay with CAKI-1 renal, with HCT-15 colon, in the assay on HOP-92 NSCLC, in the assay on NCI-H226 lung and in the assay with NCI-H522 lung was greater than 100 µM throughout. Also, the TGI with OVCAR-4 ovarian, in the assay with OVCAR-8 ovarian, with RXF 393 renal, with SF-268 CNS, in the assay with SN12C renal and with SNB-75 CNS was greater than 100 µM throughout. In addition, the TGI in the assay on SR leukemia, in the assay on SW-620 colon, in the assay with UACC-257 melanoma and with UO-31 renal was greater than 100 µM throughout.
Take `O=S(Cc1cc2c(cc1Br)OCO2)c1ccccc1` (stereo not given): the TGI with 786-0 renal was greater than 100 µM; in the assay with CAKI-1 renal it was greater than 100 µM; in the assay on HCT-15 colon, greater than 100 µM; with HOP-92 NSCLC it was greater than 100 µM; in the assay with NCI-H226 lung, greater than 100 µM; in the assay on NCI-H522 lung, 56.3 µM. Also, the TGI with OVCAR-4 ovarian, in the assay with OVCAR-8 ovarian, in the assay with RXF 393 renal, in the assay on SF-268 CNS, in the assay with SN12C renal and in the assay with SNB-75 CNS was greater than 100 µM throughout. Moreover, the values for the TGI with SW-620 colon, in the assay with UACC-257 melanoma and in the assay on UO-31 renal were 29.7 µM, greater than 100 µM and greater than 100 µM, respectively.
